Our source for the inhibition, IC50 and EC50 values is ChEMBL document CHEMBL4118120, “Identification of a novel selective small-molecule inhibitor of protein arginine methyltransferase 5 (PRMT5) by virtual screening, resynthesis and biological evaluations” (Bioorg Med Chem Lett, 2018).

Assay [1] deals with T1, PRMT5/MEP50 complex (Homo sapiens) (UniProt O14744+Q9BQA1). Nature of the assay: Inhibition of recombinant human N-terminal FLAG-tagged PRMT5 (2 to end residues) /human N-terminal His-tagged MEP50 (2 to end residues) expressed in HEK293F cells at 50 uM using substrate pretreated for 15 mins followed by substrate and [3H]-SAM addition measured after 60 mins by scintillation proximity assay relative to control. It is filed as cell-based.

Assay [2] addresses T2, PRMT5/MEP50 complex (Homo sapiens, UniProt O14744). Nature of the assay: Inhibition of recombinant human N-terminal FLAG-tagged PRMT5 (2 to end residues) /human N-terminal His-tagged MEP50 (2 to end residues) expressed in HEK293F cells using substrate pretreated for 15 mins followed by substrate and [3H]-SAM addition measured after 60 mins by scintillation proximity assay. The format is cell-based.

Assay [3] addresses T2, PRMT5/MEP50 complex. Nature of the assay: Inhibition of recombinant human N-terminal FLAG-tagged PRMT5 (2 to end residues) /human N-terminal His-tagged MEP50 (2 to end residues) expressed in HEK293F cells using substrate measured after 60 mins by Alphalisa assay. The format is cell-based.
Assay [4] has as its target T1, PRMT5/MEP50 complex (Homo sapiens). Nature of the assay: Inhibition of recombinant human N-terminal FLAG-tagged PRMT5 (2 to end residues) /human N-terminal His-tagged MEP50 (2 to end residues) expressed in HEK293F cells at 100 uM using substrate pretreated for 15 mins followed by substrate and [3H]-SAM addition measured after 60 mins by scintillation proximity assay relative to control. It is filed as cell-based.

Assay [5] has as its target T2, PRMT5/MEP50 complex. Nature of the assay: Inhibition of recombinant human N-terminal FLAG-tagged PRMT5 (2 to end residues) /human N-terminal His-tagged MEP50 (2 to end residues) expressed in HEK293F cells using biotinylated H4 derived peptide as substrate pretreated for 15 mins followed by substrate and [3H]-SAM addition measured after 60 mins by liquid scintillation counting method.

For assay [6], the target named is Protein arginine N-methyltransferase 5 (Homo sapiens) (UniProt O14744). Nature of the assay: Inhibition of PRMT5 in human MV411 cells assessed as upregulation of Gas1 expression at 30 uM by SYBR green dye based RT-qPCR analysis. The format is cell-based.
Sequence of Protein arginine N-methyltransferase 5 (Homo sapiens) (O14744 whole entry): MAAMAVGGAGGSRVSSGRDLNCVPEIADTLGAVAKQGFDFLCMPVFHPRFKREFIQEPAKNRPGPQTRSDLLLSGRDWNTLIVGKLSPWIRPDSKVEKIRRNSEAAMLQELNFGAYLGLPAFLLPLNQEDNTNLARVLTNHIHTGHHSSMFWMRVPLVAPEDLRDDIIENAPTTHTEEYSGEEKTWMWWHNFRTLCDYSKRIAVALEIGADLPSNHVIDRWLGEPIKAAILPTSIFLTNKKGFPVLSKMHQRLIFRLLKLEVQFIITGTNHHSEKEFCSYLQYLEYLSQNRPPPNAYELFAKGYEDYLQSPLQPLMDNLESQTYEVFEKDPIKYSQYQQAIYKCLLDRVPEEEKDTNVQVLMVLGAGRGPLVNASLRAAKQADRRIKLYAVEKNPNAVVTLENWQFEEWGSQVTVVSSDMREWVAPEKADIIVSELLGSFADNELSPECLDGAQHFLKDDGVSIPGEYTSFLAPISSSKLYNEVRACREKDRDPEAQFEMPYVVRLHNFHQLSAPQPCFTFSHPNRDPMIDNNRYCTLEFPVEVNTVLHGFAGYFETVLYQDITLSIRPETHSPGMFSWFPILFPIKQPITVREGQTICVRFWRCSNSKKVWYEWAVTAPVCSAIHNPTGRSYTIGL
Assay [7] deals with Protein arginine N-methyltransferase 1 (Homo sapiens, UniProt Q99873). Nature of the assay: Inhibition of recombinant human N-terminal GST-tagged PRMT1 (2 to end residues) expressed in baculovirus infected Sf9 insect cells using peptide substrate pretreated for 15 mins followed by substrate/[3H]-SAM addition measured after 60 mins by scintillation proximity assay.
Sequence of Protein arginine N-methyltransferase 1 (Q99873 whole entry): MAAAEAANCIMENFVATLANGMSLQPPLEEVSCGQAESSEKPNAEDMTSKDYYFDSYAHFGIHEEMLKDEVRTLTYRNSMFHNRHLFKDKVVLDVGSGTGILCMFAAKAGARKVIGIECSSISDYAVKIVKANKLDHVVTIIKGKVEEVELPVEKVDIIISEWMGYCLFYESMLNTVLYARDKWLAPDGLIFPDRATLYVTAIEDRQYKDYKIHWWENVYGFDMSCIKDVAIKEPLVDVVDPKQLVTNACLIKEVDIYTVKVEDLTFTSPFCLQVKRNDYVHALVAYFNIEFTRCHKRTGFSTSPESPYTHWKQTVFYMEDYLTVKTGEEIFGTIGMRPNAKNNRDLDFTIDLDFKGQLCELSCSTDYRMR
For assay [8], the system named is MV4-11. Nature of the assay: Antiproliferative activity against human MV411 cells after 4 days by Celltiiter-Glo luminescence cell viability assay. The note with it: MV4-11, 96 h.
The target in assay [9] is T3, Histone-arginine methyltransferase CARM1 (Homo sapiens, UniProt Q86X55).
T3 sequence (Q86X55 whole entry): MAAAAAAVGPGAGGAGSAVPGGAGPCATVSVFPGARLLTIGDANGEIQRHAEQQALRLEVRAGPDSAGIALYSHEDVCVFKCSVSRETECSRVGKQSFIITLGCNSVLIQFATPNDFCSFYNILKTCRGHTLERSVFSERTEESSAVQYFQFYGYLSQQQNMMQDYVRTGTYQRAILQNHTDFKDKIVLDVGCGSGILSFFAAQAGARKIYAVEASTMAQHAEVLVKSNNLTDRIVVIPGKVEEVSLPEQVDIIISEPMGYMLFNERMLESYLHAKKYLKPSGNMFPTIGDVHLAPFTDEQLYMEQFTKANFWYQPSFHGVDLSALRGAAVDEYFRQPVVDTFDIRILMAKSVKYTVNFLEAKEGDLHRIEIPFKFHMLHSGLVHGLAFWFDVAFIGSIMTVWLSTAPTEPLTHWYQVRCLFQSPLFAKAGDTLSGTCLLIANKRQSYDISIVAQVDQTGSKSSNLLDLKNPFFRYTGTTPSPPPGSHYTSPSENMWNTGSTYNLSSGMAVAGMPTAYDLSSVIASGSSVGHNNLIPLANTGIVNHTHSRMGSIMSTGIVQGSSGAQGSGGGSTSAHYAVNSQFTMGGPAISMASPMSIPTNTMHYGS
Nature of the assay: Inhibition of recombinant human N-terminal FLAG-tagged CARM1 (2 to end residues) expressed in HEK293F cells pretreated for 15 mins followed by substrate addition measured after 60 mins by Alphalisa assay. The format is cell-based.

pEC50, pIC50: −log10 of the molar value. Activity calls are given as the source filed them. No cut-off for these calls is given here.

T2 sequence (O14744 whole entry): as the sequence (O14744 whole entry) above
T2 sequence (Q9BQA1 whole entry, further chain): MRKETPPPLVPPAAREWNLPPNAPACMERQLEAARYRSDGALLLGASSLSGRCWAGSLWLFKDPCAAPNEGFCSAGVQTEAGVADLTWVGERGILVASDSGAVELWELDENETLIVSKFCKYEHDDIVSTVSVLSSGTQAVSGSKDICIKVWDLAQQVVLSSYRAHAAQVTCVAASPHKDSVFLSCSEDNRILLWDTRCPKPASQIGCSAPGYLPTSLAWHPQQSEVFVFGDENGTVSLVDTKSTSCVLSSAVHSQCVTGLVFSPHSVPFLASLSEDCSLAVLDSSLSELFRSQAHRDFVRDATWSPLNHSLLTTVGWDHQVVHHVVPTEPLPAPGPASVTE

As to `COc1ccc(-c2csc(Nc3ccc(Cl)c(Cl)c3)n2)cc1`, in [1], the inhibition turned out to be 28.1%.
Still for that read-out and setting: the result for `CCCOc1ccc(Nc2nc(-c3cc4cc(OC)ccc4oc3=O)cs2)cc1` reads 7%.
Still for that read-out and setting: next, `CC[n+]1c(-c2ccccc2)csc1Nc1ccc(O)c(C(=O)O)c1`: 7%; `CCOc1cc(C(=O)Nc2nc(-c3ccc(C)cc3C)cs2)cc(OCC)c1OCC`: 0%.
With `COc1ccc(-c2csc(Nc3ccc(C)c(Cl)c3)n2)cc1F`, in [1], the inhibition was 26.4%.
Regarding `COc1ccc(-c2csc(NC3=CS(=O)(=O)c4ccccc43)n2)cc1OC`, the inhibition in assay [1] worked out at 21%.
On the same count and under the same terms, the result for `COc1ccc(OC)c(Nc2nc(-c3ccc(Cl)cc3Cl)cs2)c1` reads 20%.
In the case of `Cc1cc(-c2csc(Nc3ccc(O)c(C(=O)O)c3)n2)ccc1F`, in assay [2], the pIC50 was 4.66. In [1], the inhibition is 71%.
Regarding `COc1cc(Cl)c(OC)c(Nc2nc(-c3ccc(C)cc3)cs2)c1`, in [1], the inhibition is 33%.
On to `CCOc1ccccc1Nc1nc(-c2cc3cc(OC)ccc3oc2=O)cs1`, for which, in assay [1], the inhibition was 0%.
`NC(=O)N/N=C/c1ccc(-c2ccc(Cl)cc2)o1`: in assay [3], the pIC50 was 6.24.
As to `COc1ccc(-c2csc(Nc3ccc4c(c3)OCO4)n2)cc1Br`, in assay [1], the inhibition is 25%.
`COc1cc(Br)c(Br)c(/C=N/c2cccc(-c3nc4ccccc4[nH]3)c2)c1O`: the inhibition in [4] is greater than 50%. Also, the pIC50 in assay [2] is 4.32.
As for `CCOc1ccc(-c2csc(Nc3ccc(Cl)cc3)n2)cc1[N+](=O)[O-]`, the inhibition in assay [1] amounted to 25%.
For the molecule `COc1ccc(Nc2nc(-c3ccc(OCc4ccc([N+](=O)[O-])cc4)cc3)cs2)cc1`, in assay [1], the inhibition is 0%.
As to `CCN(CC)CCCNC(=O)c1ccc(OC)c([N+](=O)[O-])c1`, the inhibition in assay [4] was greater than 50%. Further, the pIC50 in [2] was 4.38.
Regarding `OC(CNCc1c(OCc2ccccc2)ccc2ccccc12)c1ccccc1` (configuration not stated), the pIC50 in assay [5] is 5.55.
With `COc1ccc(-c2csc(Nc3ccc(O)c(C(=O)O)c3)n2)cc1C`, the inhibition entry in [6] is “Active”. Further, the pIC50 in [7] is less than 4.00; in assay [2], 4.85; in assay [9], less than 4.00. This molecule showed a pEC50 in [8] of 4.65. The inhibition in assay [1] came to 95%.
In the case of `COc1ccc(-c2csc(NC(=S)NC(=O)c3ccc(C(C)(C)C)cc3)n2)cc1Br`, the inhibition in [1] worked out at 9%.
Consider `Cc1ccc(C)c(-c2csc(Nc3ccc(O)c(C(=O)O)c3)n2)c1`, for which the inhibition in [4] is greater than 50%; in assay [1], 80%. Moreover, in [2], the pIC50 was 4.46.
As to `COc1ccc(Nc2nc(-c3cc4ccccc4o3)cs2)cc1`, in [1], the inhibition was 10%.
Same read-out and setting: the result for `COc1cc(Nc2nc(-c3cc(C)ccc3C)cs2)c(OC)cc1Cl` reads 24%; that for `COc1ccc(Nc2nc(-c3ccc(OCc4ccc(Br)cc4)cc3)cs2)cc1`, 0%; that for `COc1ccccc1Nc1nc(-c2ccc3ccccc3c2)cs1`, 6%.
`O=C(O)COc1ccc(Br)cc1-c1csc(Nc2ccc(Br)cc2)n1`: the pIC50 in assay [2] is 4.36. In addition, the inhibition in assay [1] was 61%.
Regarding `COc1ccc(-c2csc(NC(=O)c3ccccc3Cl)n2)cc1C`, the inhibition in assay [1] was determined as 3.5%.
Take `COc1ccc(Cl)cc1C(=O)Nc1nc(-c2ccc(C)c(C)c2)cs1`: the inhibition in assay [1] worked out at 3.5%.
Turning to `COc1ccc(Br)cc1C(=O)NC(=S)Nc1nc(-c2ccccc2)cs1`, the inhibition in assay [1] is 8%.
Turning to `COc1ccc(OC)c(Nc2nc(-c3ccc4ccccc4c3)cs2)c1`, the inhibition in [1] was determined as 23%.
With `COc1cccc(Nc2nc(-c3ccc(OC)c(Br)c3)cs2)c1`, the inhibition in assay [1] stood at 27.4%.
The same measure, in the same setting: next, `COc1ccccc1Nc1nc(-c2cc3cc(Br)ccc3oc2=O)cs1`: 9%.
